Measured values: ChEMBL document CHEMBL1134895, “Synthesis and dopamine transporter binding affinities of 3alpha-benzyl-8-(diarylmethoxyethyl)-8-azabicyclo[3.2.1]octanes” (Bioorg Med Chem Lett, 2002)

Target: Sodium-dependent dopamine transporter (Rattus norvegicus, UniProt P23977)
Test: Displacement of [3H]WIN-35428 from dopamine transporter of rat caudate putamen tissue
Format: tissue-based

Sodium-dependent dopamine transporter, sequence (P23977 whole entry): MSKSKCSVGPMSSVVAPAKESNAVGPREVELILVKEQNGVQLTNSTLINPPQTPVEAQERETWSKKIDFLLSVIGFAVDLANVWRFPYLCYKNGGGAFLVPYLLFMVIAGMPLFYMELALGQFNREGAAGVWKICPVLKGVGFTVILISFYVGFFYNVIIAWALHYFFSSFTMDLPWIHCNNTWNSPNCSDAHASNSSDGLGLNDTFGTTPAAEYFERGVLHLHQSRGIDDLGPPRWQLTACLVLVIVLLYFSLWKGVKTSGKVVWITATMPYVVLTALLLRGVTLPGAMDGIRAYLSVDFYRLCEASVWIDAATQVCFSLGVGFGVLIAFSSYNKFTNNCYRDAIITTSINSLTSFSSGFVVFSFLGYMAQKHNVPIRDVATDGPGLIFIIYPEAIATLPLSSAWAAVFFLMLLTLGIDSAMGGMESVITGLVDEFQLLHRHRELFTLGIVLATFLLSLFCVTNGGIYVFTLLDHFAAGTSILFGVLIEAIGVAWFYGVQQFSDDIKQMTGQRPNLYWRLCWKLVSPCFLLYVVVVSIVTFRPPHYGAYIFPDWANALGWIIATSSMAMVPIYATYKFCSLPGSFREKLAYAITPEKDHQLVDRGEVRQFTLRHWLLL

Row | Structure (SMILES) | Ki
1 | c1ccc(CC2CC3CCC(C2)N3CCOC(c2ccccc2)c2ccccc2)cc1 (centres undefined) | 98 nM
2 | COc1ccc(C(OCCN2C3CCC2CC(Cc2ccccc2)C3)c2ccc(OC)cc2)cc1 (centres undefined) | 135 nM
3 | Clc1ccc(C(OCCN2C3CCC2CC(Cc2ccccc2)C3)c2ccc(Cl)cc2)cc1 (centres undefined) | 346 nM
4 | Fc1ccc(C(OCCN2CCC(CCCc3ccccc3)CC2)c2ccc(F)cc2)cc1 | 595 nM
5 | Fc1ccc(C(OCCN2C3CCC2CC(Cc2ccccc2)C3)c2ccc(F)cc2)cc1 (centres undefined) | 144 nM
6 | Cc1ccc(C(OCCN2C3CCC2CC(Cc2ccccc2)C3)c2ccc(C)cc2)cc1 (centres undefined) | 217 nM
7 | Clc1ccc(C(OCCN2C3CCC2CC(Cc2ccccc2)C3)c2ccccc2)cc1 (centres undefined) | 198 nM
8 | Fc1ccc(C(OCCC2CCN(CCCc3ccccc3)CC2)c2ccc(F)cc2)cc1 | 25 nM
9 | c1ccc(CN2C3CCC2CC(CCOC(c2ccccc2)c2ccccc2)C3)cc1 (centres undefined) | 99 nM
